Laboratory results taken from the NIST ThermoML archive (doi:10.1021/je800756r).
Values joined by “and” are separate entries in the source; they are usually repeats but may differ in a detail not shown here. Equal entries are not always repeated.

Test: xn = mol fraction of the nth substance listed
Conditions: Capillary rise

FCF [difluoromethane] + CCC
Conditions	surface tension liquid-gas
280 K, x2 = 0.01	9.7 mN/m
280 K, x2 = 0.013	9.4 mN/m
280 K, x2 = 0.037	9.5 mN/m
280 K, x2 = 0.07	9 mN/m
280 K, x2 = 0.087	8.7 mN/m
280 K, x2 = 0.092	8.4 mN/m
280 K, x2 = 0.115	8.5 mN/m
280 K, x2 = 0.12	8.4 mN/m
280 K, x2 = 0.121	8 mN/m
280 K, x2 = 0.123	8.2 mN/m
280 K, x2 = 0.124	8.2 mN/m
280 K, x2 = 0.131	7.9 mN/m
280 K, x2 = 0.141	8 mN/m
280 K, x2 = 0.515	6.4 mN/m
280 K, x2 = 0.588	6.5 mN/m
280 K, x2 = 0.605	6.5 mN/m
280 K, x2 = 0.648	6.8 mN/m and 6.7 mN/m
280 K, x2 = 0.662	6.8 mN/m
280 K, x2 = 0.682	6.8 mN/m
280 K, x2 = 0.697	7 mN/m
280 K, x2 = 0.706	7.1 mN/m
280 K, x2 = 0.729	7.1 mN/m
280 K, x2 = 0.755	7.4 mN/m
280 K, x2 = 0.775	7.4 mN/m
280 K, x2 = 0.813	7.8 mN/m
280 K, x2 = 0.826	7.8 mN/m
280 K, x2 = 0.898	8.4 mN/m
280 K, x2 = 0.931	8.8 mN/m
280 K, x2 = 0.942	8.9 mN/m
280 K, x2 = 0.968	9.1 mN/m
290 K, x2 = 0.002	8.1 mN/m
290 K, x2 = 0.003	8 mN/m
290 K, x2 = 0.004	8 mN/m
290 K, x2 = 0.005	7.9 mN/m
290 K, x2 = 0.039	7.5 mN/m
290 K, x2 = 0.065	7.2 mN/m
290 K, x2 = 0.078	7 mN/m
290 K, x2 = 0.081	7.2 mN/m
290 K, x2 = 0.09	7.1 mN/m
290 K, x2 = 0.095	6.9 mN/m
290 K, x2 = 0.097	6.9 mN/m
290 K, x2 = 0.114	6.6 mN/m
290 K, x2 = 0.143	6.5 mN/m
290 K, x2 = 0.156	6.3 mN/m
290 K, x2 = 0.175	5.9 mN/m
290 K, x2 = 0.185	5.9 mN/m
290 K, x2 = 0.198	6 mN/m
290 K, x2 = 0.209	5.7 mN/m
290 K, x2 = 0.485	5 mN/m
290 K, x2 = 0.506	4.9 mN/m
290 K, x2 = 0.525	5 mN/m
290 K, x2 = 0.539	5.1 mN/m
290 K, x2 = 0.58	5.1 mN/m
290 K, x2 = 0.596	5.1 mN/m
290 K, x2 = 0.604	5.2 mN/m
290 K, x2 = 0.648	5.6 mN/m
290 K, x2 = 0.691	5.9 mN/m
290 K, x2 = 0.768	6.1 mN/m
290 K, x2 = 0.805	6.4 mN/m
290 K, x2 = 0.896	7 mN/m
290 K, x2 = 0.917	7.3 mN/m
290 K, x2 = 0.925	7.4 mN/m
290 K, x2 = 0.975	7.7 mN/m
290 K, x2 = 0.986	7.9 mN/m
290 K, x2 = 0.999	8.1 mN/m
300 K, x2 = 0.02	6 mN/m
300 K, x2 = 0.045	5.7 mN/m
300 K, x2 = 0.087	5.4 mN/m
300 K, x2 = 0.11	5.2 mN/m
300 K, x2 = 0.12	5 mN/m
300 K, x2 = 0.124	5 mN/m
300 K, x2 = 0.149	4.6 mN/m
300 K, x2 = 0.154	4.7 mN/m
300 K, x2 = 0.22	4.1 mN/m
300 K, x2 = 0.573	4 mN/m
300 K, x2 = 0.682	4.5 mN/m
300 K, x2 = 0.692	4.7 mN/m
300 K, x2 = 0.703	4.7 mN/m
300 K, x2 = 0.744	4.9 mN/m
300 K, x2 = 0.748	5.1 mN/m
300 K, x2 = 0.761	5 mN/m
300 K, x2 = 0.771	5.1 mN/m
300 K, x2 = 0.782	5.1 mN/m
300 K, x2 = 0.79	5.2 mN/m
300 K, x2 = 0.824	5.5 mN/m
300 K, x2 = 0.834	5.4 mN/m
300 K, x2 = 0.838	5.5 mN/m
300 K, x2 = 0.852	5.6 mN/m
300 K, x2 = 0.865	5.8 mN/m
300 K, x2 = 0.881	5.8 mN/m
300 K, x2 = 0.893	6 mN/m
300 K, x2 = 0.897	5.9 mN/m
300 K, x2 = 0.911	6 mN/m
300 K, x2 = 0.918	6.2 mN/m
300 K, x2 = 0.938	6.4 mN/m
300 K, x2 = 0.982	6.8 mN/m
300 K, x2 = 0.994	6.7 mN/m
300 K, x2 = 0.999	6.9 mN/m
